As a reminder, the IC50 is the concentration that gives 50% inhibition. Read a high IC50 as weaker potency.

3-beta-hydroxysteroid-Delta(8),Delta(7)-isomerase, sequence (Q15125 whole entry): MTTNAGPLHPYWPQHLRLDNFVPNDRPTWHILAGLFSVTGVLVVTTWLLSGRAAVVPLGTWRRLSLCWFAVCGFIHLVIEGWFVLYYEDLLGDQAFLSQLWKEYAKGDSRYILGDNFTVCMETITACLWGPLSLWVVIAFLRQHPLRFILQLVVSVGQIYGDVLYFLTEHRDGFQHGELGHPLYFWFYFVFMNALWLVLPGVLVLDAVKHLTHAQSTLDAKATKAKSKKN

This experiment concerns the target 3-beta-hydroxysteroid-Delta(8),Delta(7)-isomerase (Homo sapiens, UniProt Q15125). The experiment in a line: Displacement of [3H]ifenprodil from FLAG-tagged EBP (unknown origin) overexpressing human Expi293F cells measured after 20 mins by Microbeta microplate counter. The format is cell-based. In general terms: Loss of bound radioactivity is the signal in a displacement assay; it reports binding, not function.
Consider `CCc1cnccc1CN1CC2(C1)CN(S(=O)(=O)c1ccc(C(F)(F)F)nc1C)C2`, for which the IC50 was under 15 nM.

In turn, `Cc1nc(C(F)(F)C(F)(F)F)ccc1S(=O)(=O)N1CC2(CN(C3CCOCC3)C2)C1` returned an IC50 of under 15 nM.

Take `Cn1nc(C2CCC2)cc1S(=O)(=O)N1CC2(CN(C3CCOCC3)C2)C1`: the IC50 is under 15 nM.

`Cc1cc(C(F)(F)F)nc(C)c1S(=O)(=O)N1CC2(CN(Cc3ccn(C)n3)C2)C1` displayed an IC50 of under 15 nM.

In turn, `Cn1nc(C2CCCCC2)cc1S(=O)(=O)N1CC2(CN(C3CCOCC3)C2)C1` displayed a concentration for half-maximal inhibition (IC50) of under 15 nM.

On to `Cn1nc(-c2ccccc2)cc1S(=O)(=O)N1CC2(CN(C3CCOCC3)C2)C1`, for which the IC50 was under 15 nM.

Values taken from ChEMBL document CHEMBL6134913, “Novel Emopamil-Binding Protein Inhibitors for Treating Multiple Sclerosis” (ACS Med Chem Lett, 2025).
